# Experiments:
# [1] = target: Mitogen-activated protein kinase 9 (Homo sapiens, UniProt P45984); test: Inhibition of JNK2 (unknown origin)
# [2] = target: Mitogen-activated protein kinase 8 (Homo sapiens, UniProt P45983); test: Inhibition of JNK1 (unknown origin)
# [3] = Inhibition of ROCK in rat A7r5 cells assessed as inhibition of myosin light chain bisphosphorylation by Western blot analysis; type: cell-based
# [4] = Half life in human liver microsomes; type: ADME, Microsome
# [5] = target: Mitogen-activated protein kinase 10 (Homo sapiens, UniProt P53779); test: Inhibition of JNK3 (unknown origin)
# [6] = target: CYP2D6 (Homo sapiens, UniProt P10635); test: Inhibition of CYP2D6 (unknown origin) at 10 uM relative to control; type: ADME
# [7] = target: CYP2C9 (Homo sapiens, UniProt P11712); test: Inhibition of CYP2C9 (unknown origin) at 10 uM relative to control; type: ADME
# [8] = target: Mitogen-activated protein kinase 14 (Homo sapiens, UniProt Q16539); test: Inhibition of p38alpha (unknown origin)
# [9] = target: CYP3A4 (Homo sapiens, UniProt P08684); test: Inhibition of CYP3A4 (unknown origin) at 10 uM relative to control; type: ADME
# [10] = target: Rho-associated protein kinase 1 (Homo sapiens, UniProt Q13464); test: Inhibition of ROCK1 (unknown origin)
# [11] = target: T1, CYP1A2 (Homo sapiens, UniProt P05177); test: Inhibition of CYP1A2 (unknown origin) at 10 uM relative to control; type: ADME
# T1 sequence (P05177 whole entry): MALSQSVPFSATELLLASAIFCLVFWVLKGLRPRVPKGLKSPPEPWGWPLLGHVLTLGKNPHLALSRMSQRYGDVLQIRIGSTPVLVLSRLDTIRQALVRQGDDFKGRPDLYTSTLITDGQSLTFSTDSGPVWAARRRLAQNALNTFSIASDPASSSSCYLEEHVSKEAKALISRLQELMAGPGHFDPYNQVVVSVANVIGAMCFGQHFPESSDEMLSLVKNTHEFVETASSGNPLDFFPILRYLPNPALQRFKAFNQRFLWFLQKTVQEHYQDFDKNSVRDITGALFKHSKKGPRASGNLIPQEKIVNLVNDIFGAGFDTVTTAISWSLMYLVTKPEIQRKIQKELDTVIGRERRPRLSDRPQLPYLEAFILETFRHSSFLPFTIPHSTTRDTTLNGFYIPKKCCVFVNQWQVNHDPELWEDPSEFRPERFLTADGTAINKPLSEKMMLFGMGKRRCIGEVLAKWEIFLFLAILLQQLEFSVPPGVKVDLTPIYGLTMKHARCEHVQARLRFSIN
# [12] = target: Serine/threonine-protein kinase MRCK alpha (Homo sapiens, UniProt Q5VT25); test: Inhibition of MRCKalpha (unknown origin)
# [13] = Inhibition of PKA (unknown origin); design: species or system Homo sapiens
# [14] = target: Rho-associated protein kinase 2 (Homo sapiens, UniProt O75116); test: Inhibition of human recombinant 6-His-tagged ROCK2 expressed in baculovirus-infected Sf9 cells using LCB-AKRRRLSSLRA-NH2 as substrate after 25 mins by TR-FRET assay
# Rho-associated protein kinase 2, sequence (O75116 whole entry): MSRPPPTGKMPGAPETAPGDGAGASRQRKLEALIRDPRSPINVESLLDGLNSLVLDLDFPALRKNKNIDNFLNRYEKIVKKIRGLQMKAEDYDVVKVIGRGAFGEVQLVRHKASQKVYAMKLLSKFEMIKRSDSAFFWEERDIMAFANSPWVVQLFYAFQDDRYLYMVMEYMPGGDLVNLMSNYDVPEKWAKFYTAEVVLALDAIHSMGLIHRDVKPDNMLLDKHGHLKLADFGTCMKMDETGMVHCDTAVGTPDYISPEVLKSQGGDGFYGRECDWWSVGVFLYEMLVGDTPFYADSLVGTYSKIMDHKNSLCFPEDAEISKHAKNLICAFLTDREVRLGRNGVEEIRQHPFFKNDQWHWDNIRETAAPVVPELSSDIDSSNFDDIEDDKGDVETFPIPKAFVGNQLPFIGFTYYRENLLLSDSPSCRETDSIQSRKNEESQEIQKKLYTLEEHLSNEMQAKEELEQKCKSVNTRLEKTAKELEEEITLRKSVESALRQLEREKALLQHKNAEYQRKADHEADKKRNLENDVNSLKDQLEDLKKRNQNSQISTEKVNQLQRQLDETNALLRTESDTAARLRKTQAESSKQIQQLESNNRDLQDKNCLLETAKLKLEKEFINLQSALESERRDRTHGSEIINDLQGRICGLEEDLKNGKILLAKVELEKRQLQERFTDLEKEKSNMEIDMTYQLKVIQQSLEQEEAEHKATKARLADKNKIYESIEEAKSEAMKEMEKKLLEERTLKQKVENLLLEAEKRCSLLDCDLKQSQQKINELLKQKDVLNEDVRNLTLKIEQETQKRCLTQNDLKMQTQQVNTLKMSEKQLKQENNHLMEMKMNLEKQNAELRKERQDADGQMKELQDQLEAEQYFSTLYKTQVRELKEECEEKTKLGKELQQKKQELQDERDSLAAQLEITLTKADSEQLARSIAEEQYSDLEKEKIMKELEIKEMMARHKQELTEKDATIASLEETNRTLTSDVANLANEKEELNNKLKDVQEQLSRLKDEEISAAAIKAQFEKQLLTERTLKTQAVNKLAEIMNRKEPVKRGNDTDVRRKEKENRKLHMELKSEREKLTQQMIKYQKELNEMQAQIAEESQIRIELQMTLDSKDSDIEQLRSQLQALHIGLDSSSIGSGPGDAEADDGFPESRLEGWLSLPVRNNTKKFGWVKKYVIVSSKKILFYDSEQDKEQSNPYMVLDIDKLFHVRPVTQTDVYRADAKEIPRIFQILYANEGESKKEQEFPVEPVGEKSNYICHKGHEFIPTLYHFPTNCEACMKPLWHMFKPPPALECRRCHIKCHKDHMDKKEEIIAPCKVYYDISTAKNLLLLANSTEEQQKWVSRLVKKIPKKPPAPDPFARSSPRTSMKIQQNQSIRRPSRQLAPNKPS
# Rho-associated protein kinase 1, sequence (Q13464 whole entry): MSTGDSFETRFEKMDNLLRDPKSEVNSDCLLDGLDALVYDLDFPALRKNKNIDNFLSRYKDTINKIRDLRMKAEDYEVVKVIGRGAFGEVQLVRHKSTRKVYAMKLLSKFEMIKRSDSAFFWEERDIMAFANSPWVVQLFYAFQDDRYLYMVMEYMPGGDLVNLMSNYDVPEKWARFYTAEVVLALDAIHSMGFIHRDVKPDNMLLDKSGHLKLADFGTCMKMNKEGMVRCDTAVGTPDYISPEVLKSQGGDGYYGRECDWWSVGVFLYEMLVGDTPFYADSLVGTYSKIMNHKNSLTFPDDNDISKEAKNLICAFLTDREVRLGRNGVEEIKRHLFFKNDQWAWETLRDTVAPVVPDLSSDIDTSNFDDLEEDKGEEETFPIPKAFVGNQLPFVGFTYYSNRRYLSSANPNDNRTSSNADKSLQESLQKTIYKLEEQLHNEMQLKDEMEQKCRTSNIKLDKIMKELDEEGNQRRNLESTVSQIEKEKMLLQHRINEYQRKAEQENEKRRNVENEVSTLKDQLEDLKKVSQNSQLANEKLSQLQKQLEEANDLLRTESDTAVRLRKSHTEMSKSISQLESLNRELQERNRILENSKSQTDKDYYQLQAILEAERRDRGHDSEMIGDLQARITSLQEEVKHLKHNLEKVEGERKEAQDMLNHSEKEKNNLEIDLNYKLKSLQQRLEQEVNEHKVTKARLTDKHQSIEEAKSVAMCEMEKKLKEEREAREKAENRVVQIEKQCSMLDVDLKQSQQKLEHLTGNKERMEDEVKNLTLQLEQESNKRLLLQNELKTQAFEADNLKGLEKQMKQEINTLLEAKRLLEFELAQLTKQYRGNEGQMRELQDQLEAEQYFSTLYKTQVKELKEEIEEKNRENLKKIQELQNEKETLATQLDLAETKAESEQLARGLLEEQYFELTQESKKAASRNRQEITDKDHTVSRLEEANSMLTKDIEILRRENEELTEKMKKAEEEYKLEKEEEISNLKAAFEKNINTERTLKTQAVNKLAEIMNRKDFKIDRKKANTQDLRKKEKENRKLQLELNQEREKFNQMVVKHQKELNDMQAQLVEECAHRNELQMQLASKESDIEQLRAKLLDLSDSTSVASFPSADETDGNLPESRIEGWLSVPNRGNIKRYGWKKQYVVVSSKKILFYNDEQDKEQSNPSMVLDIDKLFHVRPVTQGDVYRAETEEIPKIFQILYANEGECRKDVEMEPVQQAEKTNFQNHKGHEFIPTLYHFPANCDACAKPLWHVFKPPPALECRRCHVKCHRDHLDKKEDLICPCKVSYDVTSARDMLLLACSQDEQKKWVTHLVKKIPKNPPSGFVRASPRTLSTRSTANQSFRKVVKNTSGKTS
# Mitogen-activated protein kinase 10, sequence (P53779 whole entry): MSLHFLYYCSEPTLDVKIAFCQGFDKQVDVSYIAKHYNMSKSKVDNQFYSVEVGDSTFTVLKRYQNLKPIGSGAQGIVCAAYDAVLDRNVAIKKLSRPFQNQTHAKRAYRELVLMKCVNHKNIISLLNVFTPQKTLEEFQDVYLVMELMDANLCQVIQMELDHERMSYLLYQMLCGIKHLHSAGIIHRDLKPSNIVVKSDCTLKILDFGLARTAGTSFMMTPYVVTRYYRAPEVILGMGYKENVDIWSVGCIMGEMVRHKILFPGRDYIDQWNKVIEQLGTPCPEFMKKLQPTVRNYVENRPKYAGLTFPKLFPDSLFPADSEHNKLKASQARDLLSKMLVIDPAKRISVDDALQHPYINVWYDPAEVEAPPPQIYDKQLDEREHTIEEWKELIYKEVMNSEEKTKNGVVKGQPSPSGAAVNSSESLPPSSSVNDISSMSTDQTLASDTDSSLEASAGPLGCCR
# Mitogen-activated protein kinase 14, sequence (Q16539 whole entry): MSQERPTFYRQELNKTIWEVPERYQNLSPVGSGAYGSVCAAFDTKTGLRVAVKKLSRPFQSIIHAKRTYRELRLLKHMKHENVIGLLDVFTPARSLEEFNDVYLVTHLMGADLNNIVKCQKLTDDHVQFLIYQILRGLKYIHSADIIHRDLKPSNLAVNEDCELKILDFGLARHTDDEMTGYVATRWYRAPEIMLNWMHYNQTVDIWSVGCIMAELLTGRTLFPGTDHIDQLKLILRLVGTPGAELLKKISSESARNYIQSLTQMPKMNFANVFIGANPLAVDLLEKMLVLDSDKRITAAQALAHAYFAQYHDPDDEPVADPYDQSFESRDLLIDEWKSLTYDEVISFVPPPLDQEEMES
# CYP2C9, sequence (P11712 whole entry): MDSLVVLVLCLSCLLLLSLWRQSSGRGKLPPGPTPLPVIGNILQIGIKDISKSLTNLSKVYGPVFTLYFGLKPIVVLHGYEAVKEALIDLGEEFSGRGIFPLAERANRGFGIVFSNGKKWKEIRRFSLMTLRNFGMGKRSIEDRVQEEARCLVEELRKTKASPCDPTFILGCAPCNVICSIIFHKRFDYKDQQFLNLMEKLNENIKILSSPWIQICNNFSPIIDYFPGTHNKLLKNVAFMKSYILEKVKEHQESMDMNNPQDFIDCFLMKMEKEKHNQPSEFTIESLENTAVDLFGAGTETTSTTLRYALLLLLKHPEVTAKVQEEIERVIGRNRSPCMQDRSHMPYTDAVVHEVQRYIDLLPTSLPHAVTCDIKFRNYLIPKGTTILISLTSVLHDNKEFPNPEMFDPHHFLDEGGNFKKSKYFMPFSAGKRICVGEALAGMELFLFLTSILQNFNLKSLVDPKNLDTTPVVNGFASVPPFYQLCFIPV
# Mitogen-activated protein kinase 9, sequence (P45984 whole entry): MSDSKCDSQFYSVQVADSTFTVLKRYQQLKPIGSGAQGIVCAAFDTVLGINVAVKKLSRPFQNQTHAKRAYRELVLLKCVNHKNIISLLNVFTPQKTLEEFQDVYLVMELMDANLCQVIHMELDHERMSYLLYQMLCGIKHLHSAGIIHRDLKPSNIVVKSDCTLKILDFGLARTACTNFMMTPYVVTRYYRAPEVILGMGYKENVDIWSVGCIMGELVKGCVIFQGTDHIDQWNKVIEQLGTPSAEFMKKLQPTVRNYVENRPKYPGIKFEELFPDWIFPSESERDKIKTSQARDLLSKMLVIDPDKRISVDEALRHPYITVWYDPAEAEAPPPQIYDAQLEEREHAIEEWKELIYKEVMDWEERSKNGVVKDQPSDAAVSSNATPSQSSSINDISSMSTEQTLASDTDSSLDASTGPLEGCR
# CYP3A4, sequence (P08684 whole entry): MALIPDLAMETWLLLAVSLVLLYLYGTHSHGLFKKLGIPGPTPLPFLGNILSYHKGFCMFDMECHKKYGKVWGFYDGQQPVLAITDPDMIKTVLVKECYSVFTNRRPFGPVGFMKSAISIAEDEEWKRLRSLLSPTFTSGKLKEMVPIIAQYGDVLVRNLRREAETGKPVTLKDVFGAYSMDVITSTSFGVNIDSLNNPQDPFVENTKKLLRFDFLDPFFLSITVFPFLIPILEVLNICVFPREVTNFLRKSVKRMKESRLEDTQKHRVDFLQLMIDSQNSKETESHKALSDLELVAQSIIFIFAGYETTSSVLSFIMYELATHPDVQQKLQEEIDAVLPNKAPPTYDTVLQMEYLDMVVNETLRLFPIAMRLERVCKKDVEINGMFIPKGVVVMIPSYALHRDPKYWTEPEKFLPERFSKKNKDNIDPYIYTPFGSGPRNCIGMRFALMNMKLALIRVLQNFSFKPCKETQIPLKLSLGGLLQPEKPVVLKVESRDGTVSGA
Compound,IC50 [1],IC50 [2],IC50 [3],half-life [4],IC50 [5],inhibition at 10 µM [6],inhibition at 10 µM [7],IC50 [8],inhibition at 10 µM [9],IC50 [10],inhibition at 10 µM [11],IC50 [12],IC50 [13],IC50 [14]
CN(C)CC(=O)NC(c1ccc(Cl)cc1)c1nc2ccc(-c3cn[nH]c3)cc2c(=O)[nH]1 (stereo not given),> 1000 nM,> 1000 nM,500 nM,15 min,> 1000 nM,55%,83%,> 1000 nM,23%,< 1 nM,10%,> 1000 nM,7 nM,< 1 nM
COc1cc(-c2cn[nH]c2)cc2c(=O)[nH]c([C@H](N)Cc3cccc(F)c3)nc12,> 1000 nM,> 1000 nM,470 nM,36 min,> 1000 nM,57%,10%,> 1000 nM,63%,7 nM,34%,> 1000 nM,24 nM,7 nM
O=c1[nH]c([C@@H]2CNC[C@H]2c2ccccc2)nc2ccc(-c3cn[nH]c3)cc12,> 1000 nM,> 1000 nM,312 nM,35 min,> 1000 nM,72%,5%,> 1000 nM,19%,2 nM,19%,> 1000 nM,4 nM,1 nM
COc1ccc([C@@H]2CN(C)C[C@H]2c2nc3ccc(-c4cn[nH]c4)cc3c(=O)[nH]2)cc1,> 1000 nM,> 1000 nM,30 nM,21 min,> 1000 nM,66%,55%,> 1000 nM,-3%,13 nM,0%,> 1000 nM,26 nM,5 nM
O=c1[nH]c([C@@H]2CNC[C@H]2c2ccc(Cl)cc2)nc2ccc(-c3cn[nH]c3)cc12,> 1000 nM,> 1000 nM,23 nM,75 min,> 1000 nM,75%,34%,> 1000 nM,30%,1 nM,65%,> 1000 nM,2 nM,< 1 nM
